The results in this text go back to US12528783B2, “PqsR inverse agonists” (priority 2020, dated 2026).

Usually solubility stands for the concentration that dissolves in the medium under given conditions. Read a high solubility as much dissolved substance. The IC50 is the concentration that gives 50% inhibition.

The nature of data set [1]: Kinetic Turbidimetric Aqueous Solubility. Conditions: aqueous buffer, kinetic from dmso stock, PBS buffer, room temperature. The class given is physicochemical. On the procedure:
Kinetic Turbidimetric Aqueous Solubility at room temperature for 5 min. Test compound was diluted in PBS buffer to give a range of concentrations (typically 0.4, 2, 4, 20, 40, 100, and 200 μM, final DMSO concentration 2%) and incubated at room temperature for 5 min. Absorbance was measured at a wavelength of 620 nm and the solubility was estimated from the concentration of test compound that produces an increase in absorbance above the vehicle control (i.e., […]). Data was analyzed by fitting a four parameter sigmoidal function to the measured and normalized absorbances and AUC calculation providing access to Log S (decadic logarithm of the solubility).

Data set [2] has as its system P. aeruginosa pyocyanin production. As to the kind of experiment: Pyocyanin assay. The class given is cell-based. To be noted: Pseudomonas aeruginosa, PA14, 16 h, read-out: IC50-value towards pyocyanin production, PA14 in PPGAS medium, 16 h. The protocol:
Inhibition of P. aeruginosa pyocyanin production by compounds was determined photometrically as described before. In short, an overnight culture of PA14 in PPGAS medium was washed, diluted in medium to a start OD600 of 0.02, and incubated for 16 h (37° C., 200 rpm, relative humidity 75%) in the presence of test compounds. Then, cultures were extracted with chloroform and re-extracted with 0.2 M HCl. Protonated red colored pyocyanin was determined by measuring OD520 and normalizing to OD600.

In turn, `Fc1ccccc1Nc1ccc2[nH]c(COc3ccnc(C(F)(F)F)c3)nc2c1` [Compound 63] returned a solubility at 5 min in data set [1] of more than 10 µM.

Turning to `FC(F)(F)c1cc(SCc2nc3cc(Nc4ccccn4)ccc3[nH]2)ccn1` [Compound 18], in data set [2], the IC50 was in the range of 201 to 500 nM. The molecule further showed a solubility at 5 min in data set [1] of more than 50 µM.

In the case of `COc1cc(F)cc(Nc2ccc3[nH]c(CSc4ccnc(C(F)(F)F)c4)nc3c2)c1` [Compound 54], the IC50 in data set [2] is 201 to 500 nM. This molecule also had a solubility at 5 min in data set [1] of more than 25 µM.

As for `Fc1ccc(Nc2ccc3[nH]c(CSc4ccnc(C(F)(F)F)c4)nc3c2)cc1F` [Compound 47], the IC50 in data set [2] is not above 100 nM. The molecule further had a solubility at 5 min in data set [1] of more than 10 µM.

On to `FC(F)(F)c1cc(SCc2nc3cc(Nc4ccccc4Cl)ccc3[nH]2)ccn1` [Compound 27], for which the half-maximal inhibitory concentration (IC50) in data set [2] is not above 100 nM.

Turning to `Fc1c(Nc2ccc3[nH]c(CSc4ccnc(C(F)(F)F)c4)nc3c2)cccc1C(F)(F)F` [Compound 48], the IC50 in data set [2] was 101 to 200 nM.

In the case of `FC(F)(F)Oc1ccccc1Nc1ccc2[nH]c(CSc3ccnc(C(F)(F)F)c3)nc2c1` [Compound 38], in data set [2], the IC50 was 201 to 500 nM.

For `Fc1ccc(F)c(Nc2ccc3[nH]c(CSc4ccnc(C(F)(F)F)c4)nc3c2)c1` [Compound 44], in data set [1], the solubility at 5 min was more than 25 µM.

Consider `Fc1ccccc1Nc1ccc2[nH]c(CSc3ccnc(C(F)(F)F)c3)nc2c1` [Compound 22], for which the solubility at 5 min in data set [1] is more than 25 µM.

For the molecule `FC(F)(F)c1cc(NCc2nc3cc(Nc4ccccc4)ccc3[nH]2)ccn1` [Compound 60], the IC50 in data set [2] lay in the range of 201 to 500 nM. This molecule came in with a solubility at 5 min in data set [1] not below 100 µM.

Turning to `Cc1cccc(Nc2ccc3[nH]c(CSc4ccnc(C(F)(F)F)c4)nc3c2)c1` [Compound 30], the IC50 in data set [2] is 101 to 200 nM. In addition, the solubility at 5 min in data set [1] is more than 10 µM.

Molecule `Fc1cc(F)cc(Nc2ccc3[nH]c(CSc4ccnc(C(F)(F)F)c4)nc3c2)c1` [Compound 43] had a solubility at 5 min in data set [1] of more than 25 µM.

With `COc1cccc(Nc2ccc3[nH]c(CSc4ccnc(C(F)(F)F)c4)nc3c2)c1` [Compound 33], in data set [2], the IC50 was in the range of 101 to 200 nM. In data set [1], this molecule came in with a solubility at 5 min of more than 10 µM.

Molecule `Fc1ccc(Nc2ccc3[nH]c(CSc4ccnc(C(F)(F)F)c4)nc3c2)cc1` [Compound 26] displayed a solubility at 5 min in data set [1] of more than 25 µM.

On to `Fc1cccc(Nc2ccc3[nH]c(CSc4ccnc(C(F)(F)F)c4)nc3c2)c1` [Compound 23], for which the IC50 in data set [2] was not above 100 nM. In addition, in data set [1], the solubility at 5 min was more than 10 µM.

On to `COc1ccc(Nc2ccc3[nH]c(CSc4ccnc(C(F)(F)F)c4)nc3c2)cc1F` [Compound 53], for which, in data set [1], the solubility at 5 min is more than 25 µM.

For the molecule `Cc1ccc(Nc2ccc3[nH]c(CSc4ccnc(C(F)(F)F)c4)nc3c2)cc1F` [Compound 51], the IC50 in data set [2] was not above 100 nM.

In the case of `Fc1ccc(C(F)(F)F)cc1Nc1ccc2[nH]c(CSc3ccnc(C(F)(F)F)c3)nc2c1` [Compound 50], the IC50 in data set [2] is 201 to 500 nM.

On to `Fc1cc(C(F)(F)F)ccc1Nc1ccc2[nH]c(CSc3ccnc(C(F)(F)F)c3)nc2c1` [Compound 49], for which, in data set [2], the IC50 lay in the range of 101 to 200 nM. This molecule showed a solubility at 5 min in data set [1] of more than 25 µM.

In the case of `Cc1ccccc1Nc1ccc2[nH]c(CSc3ccnc(C(F)(F)F)c3)nc2c1` [Compound 29], in data set [2], the IC50 was 101 to 200 nM.

As to `Nc1cc(SCc2nc3cc(Nc4cccc(F)c4)ccc3[nH]2)cc(C(F)(F)F)n1` [Compound 24], the IC50 in data set [2] is not above 100 nM. In data set [1], this molecule registered a solubility at 5 min of more than 10 µM.

`Fc1ccc(F)c(Nc2cccc(-n3cc(CNc4ccnc(C(F)(F)F)c4)nn3)c2)c1` [Compound 06]: in data set [2], the IC50 fell in the range of 101 to 200 nM. Besides, the solubility at 5 min in data set [1] is more than 10 µM.

With `Nc1cc(-c2ncc(CNc3cc(Cl)nc(C(F)(F)F)c3)cn2)ccc1Cl` [Compound 11], the IC50 in data set [2] is 501 to 1000 nM. Also, the solubility at 5 min in data set [1] is more than 25 µM.

The molecule `FC(F)(F)c1cc(SCc2nc3cc(Nc4cccc(Cl)c4)ccc3[nH]2)ccn1` [Compound 28] showed a solubility at 5 min in data set [1] of more than 10 µM.

For `FC(F)(F)c1cc(OCc2nc3cc(Nc4ccccc4Cl)ccc3[nH]2)ccn1` [Compound 65], the IC50 in data set [2] lay within 201 to 500 nM.

In turn, `Cc1ccc(Nc2ccc3[nH]c(CSc4ccnc(C(F)(F)F)c4)nc3c2)nc1` [Compound 40] showed a solubility at 5 min in data set [1] of more than 25 µM.
